# Measurements published in the supplement of paper PMC10307832.
# Assays:
# Experiment in all cases: relative viability (nuclei count vs DMSO), 5 days (fraction); higher = more cells survive
# [1] = system: 201T
# Procedure, shortened: (§1)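 Relative viability divides the nuclei count in treated wells by that in vehicle wells. Lung cancer cell lines were seeded in 1536-well plates, dosed by pin tool the next day, and fixed and stained after 5 days in one step with final 0.05% Triton X-100, 1% formaldehyde and 1 ug/ml Hoechst. Dosing was a single drug or a fixed anchor-drug dose plus five library-drug doses (not always all listed) in √10 steps, and values are medians of duplicate plates imaged at 4×.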
# [2] = system: BEN
# Procedure, shortened: as §1
# [3] = system: CAL-12T
# Procedure, shortened: as §1
# [4] = system: HCC-78
# Procedure, shortened: as §1
# [5] = system: HOP-62
# Procedure, shortened: as §1
# [6] = system: LCLC-97TM1
# Procedure, shortened: as §1
# [7] = system: LOU-NH91
# Procedure, shortened: as §1
# [8] = system: NCI-H1355
# Procedure, shortened: as §1
# [9] = system: NCI-H1395
# Procedure, shortened: as §1
# [10] = system: NCI-H1651
# Procedure, shortened: as §1
# [11] = system: NCI-H1793
# Procedure, shortened: as §1
# [12] = system: NCI-H1915
# Procedure, shortened: as §1
# [13] = system: NCI-H1944
# Procedure, shortened: as §1
# [14] = system: NCI-H2126
# Procedure, shortened: as §1
# [15] = system: NCI-H2347
# Procedure, shortened: as §1
# [16] = system: NCI-H3122
# Procedure, shortened: as §1
# [17] = system: NCI-H322M
# Procedure, shortened: as §1
# [18] = system: NCI-H441
# Procedure, shortened: as §1
# [19] = system: NCI-H650
# Procedure, shortened: as §1
# [20] = system: NCI-H838
# Procedure, shortened: as §1
smiles,measurement,setting,value
CN1CCN(CCOc2cc(OC3CCOCC3)c3c(Nc4c(Cl)ccc5c4OCO5)ncnc3c2)CC1 [Saracatinib] + NC(=O)Nc1cc(-c2cccc(F)c2)sc1C(=O)N[C@H]1CCCNC1 [AZD7762] (partner 0.2 µM),relative viability,[1]; first compound 0.02 µM,0.554
same,relative viability,[1]; first compound 0.2 µM,0.446
same,relative viability,[1]; first compound 0.6325 µM,0.623
same,relative viability,[1]; first compound 2 µM,0.625
same,relative viability,[2]; first compound 0.02 µM,0.906
same,relative viability,[2]; first compound 0.2 µM,0.511
same,relative viability,[2]; first compound 0.6325 µM,0.847
same,relative viability,[2]; first compound 2 µM,0.713
same,relative viability,[3]; first compound 0.02 µM,0.612
same,relative viability,[3]; first compound 0.2 µM,0.6
same,relative viability,[3]; first compound 0.6325 µM,0.662
same,relative viability,[3]; first compound 2 µM,0.699
same,relative viability,[4]; first compound 0.02 µM,0.583
same,relative viability,[4]; first compound 0.6325 µM,0.774
same,relative viability,[4]; first compound 2 µM,0.421
same,relative viability,[5]; first compound 0.02 µM,0.945
same,relative viability,[5]; first compound 0.2 µM,0.614
same,relative viability,[5]; first compound 0.6325 µM,0.707
same,relative viability,[5]; first compound 2 µM,0.905
same,relative viability,[6]; first compound 0.02 µM,0.294
same,relative viability,[6]; first compound 0.6325 µM,0.398
same,relative viability,[6]; first compound 2 µM,0.265
same,relative viability,[7]; first compound 0.02 µM,0.785
same,relative viability,[7]; first compound 0.2 µM,0.722
same,relative viability,[7]; first compound 0.6325 µM,0.745
same,relative viability,[7]; first compound 2 µM,0.598
same,relative viability,[8]; first compound 0.02 µM,0.769
same,relative viability,[8]; first compound 0.2 µM,0.564
same,relative viability,[8]; first compound 0.6325 µM,0.719
same,relative viability,[8]; first compound 2 µM,0.715
same,relative viability,[9]; first compound 0.02 µM,0.404
same,relative viability,[9]; first compound 0.2 µM,0.397
same,relative viability,[9]; first compound 0.6325 µM,0.388
same,relative viability,[9]; first compound 2 µM,0.382
same,relative viability,[10]; first compound 0.02 µM,0.549
same,relative viability,[10]; first compound 0.2 µM,0.359
same,relative viability,[10]; first compound 0.6325 µM,0.514
same,relative viability,[10]; first compound 2 µM,0.436
same,relative viability,[11]; first compound 0.02 µM,0.304
same,relative viability,[11]; first compound 0.2 µM,0.233
same,relative viability,[11]; first compound 0.6325 µM,0.312
same,relative viability,[11]; first compound 2 µM,0.26
same,relative viability,[12]; first compound 0.02 µM,0.632
same,relative viability,[12]; first compound 0.2 µM,0.639
same,relative viability,[12]; first compound 0.6325 µM,0.684
same,relative viability,[12]; first compound 2 µM,0.696
same,relative viability,[13]; first compound 0.02 µM,0.476
same,relative viability,[13]; first compound 0.2 µM,0.413
same,relative viability,[13]; first compound 0.6325 µM,0.528
same,relative viability,[13]; first compound 2 µM,0.404
same,relative viability,[14]; first compound 0.02 µM,1
same,relative viability,[14]; first compound 0.2 µM,0.883
same,relative viability,[14]; first compound 0.6325 µM,1.01
same,relative viability,[14]; first compound 2 µM,0.993
same,relative viability,[15]; first compound 0.02 µM,0.828
same,relative viability,[15]; first compound 0.2 µM,0.663
same,relative viability,[15]; first compound 0.6325 µM,0.623
same,relative viability,[15]; first compound 2 µM,0.657
same,relative viability,[16]; first compound 0.02 µM,0.97
same,relative viability,[16]; first compound 0.2 µM,0.922
same,relative viability,[16]; first compound 0.6325 µM,0.889
same,relative viability,[16]; first compound 2 µM,0.698
same,relative viability,[17]; first compound 0.02 µM,0.593
same,relative viability,[17]; first compound 0.2 µM,0.498
same,relative viability,[17]; first compound 0.6325 µM,0.552
same,relative viability,[17]; first compound 2 µM,0.353
same,relative viability,[18]; first compound 0.02 µM,1.06
same,relative viability,[18]; first compound 0.2 µM,1.16
same,relative viability,[18]; first compound 0.6325 µM,1.2
same,relative viability,[18]; first compound 2 µM,1.03
same,relative viability,[19]; first compound 0.02 µM,0.984
same,relative viability,[19]; first compound 0.2 µM,1.04
same,relative viability,[19]; first compound 0.6325 µM,0.98
same,relative viability,[19]; first compound 2 µM,0.997
same,relative viability,[20]; first compound 0.02 µM,0.957
same,relative viability,[20]; first compound 0.2 µM,0.886
same,relative viability,[20]; first compound 0.6325 µM,0.989
same,relative viability,[20]; first compound 2 µM,0.852
